# Reference: article PMC5424146, “Activity-based protein profiling as a robust method for enzyme identification and screening in extremophilic Archaea” (Nature Communications, 2017)
# How the values were obtained:
# [1] = target: T1, esterase/lipase Saci_1105 (1105) (Sulfolobus acidocaldarius, UniProt Q4J9S2); assay: biochemical
# T1 construct: full gene under the maltose promoter (pSVAmZ-saci_1105) in S. acidocaldarius esterase double knockout; crude lysate or living cells
# TM_1022 [2] = target: T2, TM_1022 (Thermotoga maritima, UniProt G4FEX6); assay: esterase activity, pNP-octanoate hydrolysis, lysate of double knockout expressing TM_[…]; also competitive labelling at […]; type: biochemical; details: pNP-octanoate 0.5 mM; pH 8.0; 35 °C; pre-incubation 1 h at 60 °C; covalent
# T2 construct: gene with own promoter (about 500 bp upstream; pSVA-p-tm1022) in S. acidocaldarius esterase double knockout
# T2 sequence (G4FEX6 1-253): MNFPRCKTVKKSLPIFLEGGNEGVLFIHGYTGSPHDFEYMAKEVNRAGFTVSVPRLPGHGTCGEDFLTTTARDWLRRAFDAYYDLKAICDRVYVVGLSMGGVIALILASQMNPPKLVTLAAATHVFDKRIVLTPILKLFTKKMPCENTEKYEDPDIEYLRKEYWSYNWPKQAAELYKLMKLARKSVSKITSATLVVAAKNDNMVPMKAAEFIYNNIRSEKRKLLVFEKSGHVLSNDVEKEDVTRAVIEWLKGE
# [3] = target: T3, acetylesterase Saci_1116 (1116) (Sulfolobus acidocaldarius, UniProt Q4J9R2); assay: esterase activity, pNP-octanoate hydrolysis at […] nm, lysate of delta […] strain; type: biochemical; details: pNP-octanoate 0.5 mM; pH 8.0; 35 °C; pre-incubation 1 h at 60 °C; covalent
# T3 construct: full gene under the maltose promoter (pSVA-saci_1116) in the esterase double knockout, or native protein in the delta 1105 strain
# T3 sequence (Q4J9R2 1-305): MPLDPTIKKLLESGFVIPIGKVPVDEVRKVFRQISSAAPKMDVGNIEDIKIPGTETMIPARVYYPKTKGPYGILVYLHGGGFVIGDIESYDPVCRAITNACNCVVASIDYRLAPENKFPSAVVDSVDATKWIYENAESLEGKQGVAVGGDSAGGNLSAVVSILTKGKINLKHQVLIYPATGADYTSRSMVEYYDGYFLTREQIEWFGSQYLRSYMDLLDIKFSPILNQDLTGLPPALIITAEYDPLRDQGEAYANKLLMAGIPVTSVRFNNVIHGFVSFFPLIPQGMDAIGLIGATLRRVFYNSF
# TM_1022 [4] = target: T2, TM_1022; assay: halo on indicator plate, double knockout expressing TM_[…]; type: cell-based; details: 1% (v/v) in plate; 78 °C; up to 3 days
# T1 sequence (Q4J9S2 1-306): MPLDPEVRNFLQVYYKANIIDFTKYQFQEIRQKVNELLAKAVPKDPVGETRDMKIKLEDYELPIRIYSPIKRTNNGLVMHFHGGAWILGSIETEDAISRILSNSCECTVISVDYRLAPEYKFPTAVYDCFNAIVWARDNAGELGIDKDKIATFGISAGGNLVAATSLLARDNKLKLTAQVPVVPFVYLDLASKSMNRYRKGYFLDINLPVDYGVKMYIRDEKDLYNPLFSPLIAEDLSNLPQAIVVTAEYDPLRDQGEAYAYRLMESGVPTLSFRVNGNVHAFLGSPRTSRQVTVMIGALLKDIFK
smiles,measurement,setting,value
"C#CCNC(=O)OCCOCCOCCOCCP(=O)(OCC)Oc1ccc([N+](=O)[O-])cc1 (centres unmarked) [compound 2, NP≡]",IC50,[1],150 nM
CCOP(=O)(OCC)Oc1ccc([N+](=O)[O-])cc1 [paraoxon],reduced activity at 250 μM,TM_1022 [2],pre-incubation with paraoxon led in all cases to a significantly reduced esterase activity
same,reduced activity at 250 μM,[3],pre-incubation with paraoxon led in all cases to a significantly reduced esterase activity
CCCC(=O)OCC(COC(=O)CCC)OC(=O)CCC [tributyrin],"halo on indicator plate, double knockout expressing TM_1022",TM_1022 [4],"For both substrates, a time-dependent formation of a halo could be observed for this culture"
CCCCCC(=O)OCC(COC(=O)CCCCC)OC(=O)CCCCC [tricaproin],"halo on indicator plate, double knockout expressing TM_1022",TM_1022 [4],the halo for the tricaproin substrate was thereby slightly larger than for tributyrate
